# Experimental data reported in EP2644601A1, “Compounds with matrix-metalloproteinase inhibitory activity and imaging agents thereof” (Westfälische Wilhelms-Universität Münster, priority 2012, dated 2013).
# Legend:
# Assay type in all cases: biochemical
# MMP-8 = MMP-8 (Homo sapiens, UniProt P22894); assay: MMP compound screening with Fluorimetric SensoLyte 390 Generic MMP Activity Kit, recombinant MMP-8
# Experimental: (§1) The activities were determined using Fluorimetric SensoLyte® 390 Generic MMP Activity Kit from Anaspec (cat # 72202). This assay kit can detect the activity of several MMPs such as MMP-1, 2, 7, 8, 9, 13, 14,15,16 and 24.
# (§2) For screening MMP compounds, activated 2 nM of recombinant MMP-2, 8, 9 or 13 are pre-incubated with MMP compound (inhibitor) for 30 min at 37°C. The substrate is added and the inhibition of MMP activity is expressed as % of total activity (without the inhibitor incubation).
# MMP13 = MMP13 (Homo sapiens, UniProt P45452); assay: MMP compound screening with Fluorimetric SensoLyte 390 Generic MMP Activity Kit, recombinant MMP-13
# Experimental: as §1, §2
# MMP-2 = biological target: T1, MMP-2 (Homo sapiens, UniProt P08253); assay: MMP compound screening with Fluorimetric SensoLyte 390 Generic MMP Activity Kit, recombinant MMP-2
# T1 sequence (P08253 110-660): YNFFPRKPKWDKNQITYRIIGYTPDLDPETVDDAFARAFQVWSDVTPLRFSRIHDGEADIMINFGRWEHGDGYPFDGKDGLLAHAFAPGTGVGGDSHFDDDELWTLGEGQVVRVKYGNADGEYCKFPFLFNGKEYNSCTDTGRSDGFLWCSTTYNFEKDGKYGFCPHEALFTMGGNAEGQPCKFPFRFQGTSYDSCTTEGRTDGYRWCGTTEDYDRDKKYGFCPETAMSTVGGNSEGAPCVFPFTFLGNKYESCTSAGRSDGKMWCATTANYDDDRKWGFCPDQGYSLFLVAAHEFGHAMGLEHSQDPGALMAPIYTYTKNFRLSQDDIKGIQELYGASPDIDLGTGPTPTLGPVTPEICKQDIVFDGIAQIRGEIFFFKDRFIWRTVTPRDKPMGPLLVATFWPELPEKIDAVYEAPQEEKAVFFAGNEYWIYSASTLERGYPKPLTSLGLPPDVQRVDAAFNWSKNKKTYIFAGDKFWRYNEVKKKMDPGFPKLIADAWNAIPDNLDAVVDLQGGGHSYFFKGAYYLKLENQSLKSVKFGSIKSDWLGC
# Experimental: as §1, §2
# MMP-9 = MMP-9 (Homo sapiens, UniProt P14780); assay: MMP compound screening with Fluorimetric SensoLyte 390 Generic MMP Activity Kit, recombinant MMP-9
# MMP-9, sequence (P14780 107-707 limits assumed, species assumed): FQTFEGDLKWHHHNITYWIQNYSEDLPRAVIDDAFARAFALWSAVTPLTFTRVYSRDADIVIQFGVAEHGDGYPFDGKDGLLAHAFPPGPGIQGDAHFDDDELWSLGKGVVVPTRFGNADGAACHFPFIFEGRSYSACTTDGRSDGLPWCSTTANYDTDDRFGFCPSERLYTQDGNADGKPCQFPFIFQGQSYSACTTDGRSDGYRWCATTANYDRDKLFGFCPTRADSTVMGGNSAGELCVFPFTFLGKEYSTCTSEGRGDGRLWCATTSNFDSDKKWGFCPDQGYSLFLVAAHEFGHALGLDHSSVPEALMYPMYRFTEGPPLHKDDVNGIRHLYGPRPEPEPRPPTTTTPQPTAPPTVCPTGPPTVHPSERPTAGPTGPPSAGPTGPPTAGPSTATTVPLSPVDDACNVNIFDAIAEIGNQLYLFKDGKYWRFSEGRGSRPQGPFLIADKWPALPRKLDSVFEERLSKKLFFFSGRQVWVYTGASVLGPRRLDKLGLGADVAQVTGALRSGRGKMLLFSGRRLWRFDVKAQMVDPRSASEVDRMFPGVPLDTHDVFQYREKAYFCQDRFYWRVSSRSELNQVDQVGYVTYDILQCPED
# Experimental: as §1, §2
# MMP-8, sequence (P22894 101-467, species assumed): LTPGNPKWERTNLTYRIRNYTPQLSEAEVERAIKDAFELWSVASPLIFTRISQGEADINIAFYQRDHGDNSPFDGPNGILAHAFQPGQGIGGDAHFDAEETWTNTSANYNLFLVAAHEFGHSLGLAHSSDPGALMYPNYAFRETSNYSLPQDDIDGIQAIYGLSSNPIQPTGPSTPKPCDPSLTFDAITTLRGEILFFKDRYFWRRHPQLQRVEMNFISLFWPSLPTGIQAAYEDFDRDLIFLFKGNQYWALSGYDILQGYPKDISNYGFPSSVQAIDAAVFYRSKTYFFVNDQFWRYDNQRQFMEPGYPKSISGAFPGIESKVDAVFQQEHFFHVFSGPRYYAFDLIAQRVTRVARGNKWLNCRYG
structure (smiles),measurement,setting,value
CCN1/C(=C/C=C/C=C/C2=[N+](CCCCCC(N)=O)c3ccc4c(S(=O)(=O)O)cc(S(=O)(=O)O)cc4c3C2(C)C)C(C)(C)c2c1ccc1c(S(=O)(=O)[O-])cc(S(=O)(=O)O)cc21 [Cy5.5],inhibition at 0.1 µM,MMP-8; 0.1uM,0%
same,inhibition at 1 µM,MMP-8; 1uM,1%
same,inhibition at 0.1 µM,MMP13; 0.1uM,0%
same,inhibition at 1 µM,MMP13; 1uM,7%
same,inhibition at 0.1 µM,MMP-2; 0.1uM,0%
same,inhibition at 1 µM,MMP-2; 1uM,0%
same,inhibition at 0.1 µM,MMP-9; 0.1uM,12%
same,inhibition at 1 µM,MMP-9; 1uM,17%
